Results on 14 compounds are retold here after publication PMC6804113, “Cyclic Peptides Acting as Allosteric Inhibitors of Human Thymidylate Synthase and Cancer Cell Growth” (Molecules, 2019).

SMILES strings stand for the structures. Read-outs that look alike come from different tables or passages of the source. Starred links: 1 amine or outer side, 2 acyl side, 3 side chain; linkers in the order of their positions; H or OH if unused. Positions of bridges follow the written chain, without caps; N, C: chain ends. Non-standard residues stand in square brackets, D forms with d. Residues, ends and D or L forms follow the SMILES beside them. Cysteamide = C(CS[*:3])N[*:1]

One may read the inhibition as the drop in the measured response relative to a control, in per cent. Broadly, the IC50 is the concentration that inhibits the measured activity by half.

The conditions of series [1]: disulfide bond, DMSO/TFA, H2O/DMSO/TFA 75:25:0.1.
Series [2] concerns the target T1, recombinant human thymidylate synthase (hTS) (Homo sapiens, UniProt P04818).
T1 construct: made in house
As to the kind of experiment: hTS inhibition assay (spectrophotometric, absorbance at 340 nm). As to conditions: for % inhibition of hTS: at 500 µM and r.t. Format: biochemical. As for the experimental part:
hTS was purified as previously reported. The enzyme solution was thawed the day of the experiment and the enzyme concentration was determined by UV−Vis spectroscopy (Varian Cary 100, Agilent, Santa Clara, CA, USA) using ε280 = 89000 M^−1 cm^−1 and Mr = 74 229. The thawed protein solution was kept constantly at 4 °C. In this condition, the enzyme was able to reproduce normal kinetic activity values (KM dUMP = 10−12 μM, KM mTHF = 4−6 μM, kcat = 0.8−0.9 s^−1). The peptide solution was mixed or vortexed in order to help solubilization; the precise concentration was determined through UV−Vis spectroscopy. A stock solution of mTHF was prepared in carbonate buffer. The stock was prepared in the range of 5 to 6 mM. A stock solution of dUMP was prepared in bidistilled water in the range of 10−12 mM. Peptide inhibitors were tested without incubation with hTS in […], at 25 °C. A 1 mL amount of assay buffer consisted of 50 mM TES, pH 7.4, containing 25 mM MgCl2, 6.5 mM HCHO, 1 mM EDTA, 75 mM β-mercaptoethanol (β-ME), 0.120 mM dUMP, and 0.060 mM mTHF. Following the addition of the enzyme (300 nM) and inhibitor mixture, the absorbance was monitored at 340 nm in a UV−Vis spectrophotometer for 3 min. In the control sample, an equal aliquot of enzyme alone was added. hTS activity inhibition percentages (I%) values were measured at 0.100−3000 µM concentration of inhibitor. […] The kinetic inhibition pattern was studied for compound 7 [12]. The inhibition values are expressed as mean ± SEM; n = 3.

The target in series [3] is T1, recombinant human thymidylate synthase (hTS). The series is described as above. Format: biochemical.
A further series deals with IGROV-1 cells. The experiment in a line: Cytotoxicity, crystal violet cell growth assay, peptides transfected with SAINT-PhD. The following applies: at 10 and 25 µM, ranking among the 10 cPs, SAINT-PhD delivery. Format: cell-based, human. As to the method: The IGROV-1, A2780, and A2780/CP human ovarian cancer cell lines were grown as monolayer in RPMI 1640 medium containing 10% heat-inactivated fetal bovine serum and 50 µg/mL gentamycin sulfate (Euroclone, Devon, UK). Cultures were equilibrated with humidified 5% CO2 in air at 37 °C. The cDDP-resistant variant A2780/CP cell line, derived from the parent A2780 cell line, is about 10-fold resistant to cDDP and was developed by monthly exposure to cDDP, followed by chronic exposure to stepwise increases in cDDP concentration. All studies were performed in Mycoplasma negative cells, as routinely determined with the MycoAlert Mycoplasma detection kit (Lonza, Walkersville, MD, USA).
Treatment with each peptide was performed according to the standard transfection protocol of the SAINT-PhD delivery system (Synvolux Therapeutics, Leiden, Netherlands). Complexes of peptide (µg) with SAINT-PhD (µL) were prepared at appropriate ratios corresponding to the approximate µM concentrations indicated. For each protein sample, complexes were prepared as follows: for the treatment of a 24-well plate, the appropriate amount of each peptide was diluted in HBS, then SAINT-PhD was pipetted into the solution without vortexing; then, the mixture was incubated for 5 min at room temperature, and filled up to 500 µL with serum-free medium. The culture medium was aspirated from the cells, the SAINT-PhD/peptide complex was added to the wells and incubated 4 h (37 °C, 5% CO2). Afterward, complete RPMI was added to reach the appropriate volume for maintaining the cell culture for the duration of the experiments.
Cell growth was determined using a modified crystal violet assay. On selected days, the tissue culture medium was removed, and the cell monolayer fixed with methanol and stained with 0.2% crystal violet solution in 20% methanol for at least 30 min. After being washed several times with distilled water to remove excess dye, the cells were left to dry. The incorporated dye was solubilized in acidified isopropanol (1N HCl: 2-propanol, 1:10). After appropriate dilution, absorbance was determined spectrophotometrically at 540 nm. The extracted dye was proportional to cell biomass. The percentage of cytotoxicity was calculated by comparing the absorbance of cultures exposed to the drug to unexposed (control) cultures.

T1 sequence (P04818 whole entry): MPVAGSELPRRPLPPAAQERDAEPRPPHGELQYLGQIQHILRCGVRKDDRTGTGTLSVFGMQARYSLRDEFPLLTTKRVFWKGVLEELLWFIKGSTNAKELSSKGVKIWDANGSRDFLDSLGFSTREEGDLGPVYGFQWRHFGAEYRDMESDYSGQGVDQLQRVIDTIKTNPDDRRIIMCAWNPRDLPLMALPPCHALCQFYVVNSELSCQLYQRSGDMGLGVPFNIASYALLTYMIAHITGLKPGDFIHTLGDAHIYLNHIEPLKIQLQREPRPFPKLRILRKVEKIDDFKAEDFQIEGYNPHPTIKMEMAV

Compound `CC(C)C[C@@H]1NC(=O)[C@@H](CCC(N)=O)NC(=O)[C@@H](NC(=O)[C@H](CO)NC(=O)[C@@H](N)CC(C)C)CSSC[C@@H](C(=O)N[C@@H](CCCNC(=N)N)C(=O)O)NC(=O)[C@H](Cc2ccc(O)cc2)NC1=O` [Leu-Ser-c[Cys-D-Gln-Leu-Tyr-Cys-]Arg] had a ring closure, yield after HPLC in series [1] (from H-Leu-Ser-Cys-dGln-Leu-Tyr-Cys-Arg-OH, 17-membered ring, 1.01 mM) of 29%.

In the case of `CC(C)C[C@@H]1NC(=O)[C@@H](CCC(N)=O)NC(=O)[C@@H](NC(=O)[C@H](CO)NC(=O)[C@@H](N)CC(C)C)CSSCCNC(=O)[C@H](CCCNC(=N)N)NC(=O)[C@H](CCC(N)=O)NC(=O)[C@H](Cc2ccc(O)cc2)NC1=O` [Leu-Ser-c[Cys-D-Gln-Leu-Tyr-Gln-Arg-CAM-]], in series [1] (from H-Leu-Ser-Cys-dGln-Leu-Tyr-Gln-Arg-NHCH2CH2SH, 23-membered ring, 0.94 mM), the ring closure, yield after HPLC is 13%.

For `CC(C)C[C@@H]1NC(=O)[C@@H](CCC(N)=O)NC(=O)[C@@H](NC(=O)[C@H](CO)NC(=O)[C@@H](N)CC(C)C)CSSC[C@@H](C(=O)O)NC(=O)[C@H](CCC(N)=O)NC(=O)[C@H](Cc2ccc(O)cc2)NC1=O` [Leu-Ser-c[Cys-D-Gln-Leu-Tyr-Gln-Cys-]], the ring closure, yield after HPLC in series [1] (from H-Leu-Ser-Cys-dGln-Leu-Tyr-Gln-Cys-OH, 20-membered ring, 1.04 mM) came to 18%.

In series [1] (from H-Leu-Ser-Cys-Gln-Leu-Tyr-Gln-Arg-NHCH2CH2SH, 23-membered ring, 0.94 mM), `CC(C)C[C@@H]1NC(=O)[C@H](CCC(N)=O)NC(=O)[C@@H](NC(=O)[C@H](CO)NC(=O)[C@@H](N)CC(C)C)CSSCCNC(=O)[C@H](CCCNC(=N)N)NC(=O)[C@H](CCC(N)=O)NC(=O)[C@H](Cc2ccc(O)cc2)NC1=O` [Leu-Ser-c[Cys-Gln-Leu-Tyr-Gln-Arg-CAM-]] had a ring closure, yield after HPLC of 15%.

For the compound `CC(C)C[C@@H]1NC(=O)[C@H](CCC(N)=O)NC(=O)[C@H](C)NC(=O)[C@@H](NC(=O)[C@@H](N)CC(C)C)CSSC[C@@H](C(=O)O)NC(=O)[C@H](CCC(N)=O)NC(=O)[C@H](Cc2ccc(O)cc2)NC1=O` [Leu-c[Cys-Ala-Gln-Leu-Tyr-Gln-Cys]], the ring closure, yield after HPLC in series [1] (from H-Leu-Cys-Ala-Gln-Leu-Tyr-Gln-Cys-OH, 23-membered ring, 1.06 mM) was 30%.

In series [1] (from H-Leu-Cys-Pro-Gln-Leu-Cys-Gln-Arg-OH, 17-membered ring, 1.04 mM), `CC(C)C[C@@H]1NC(=O)[C@H](CCC(N)=O)NC(=O)[C@@H]2CCCN2C(=O)[C@@H](NC(=O)[C@@H](N)CC(C)C)CSSC[C@@H](C(=O)N[C@@H](CCC(N)=O)C(=O)N[C@@H](CCCNC(=N)N)C(=O)O)NC1=O` [Leu-c[Cys-Pro-Gln-Leu-Cys-]Gln-Arg] had a ring closure, yield after HPLC of 25%.

`CC(C)C[C@@H]1NC(=O)[C@H](CCC(N)=O)NC(=O)[C@@H]2CCCN2C(=O)[C@@H](NC(=O)[C@@H](N)CC(C)C)CSSC[C@@H](C(=O)N[C@@H](CCCNC(=N)N)C(=O)O)NC(=O)[C@H](Cc2ccc(O)cc2)NC1=O` [Leu-c[Cys-Pro-Gln-Leu-Tyr-Cys-]Arg] yielded a ring closure, yield after HPLC in series [1] (from H-Leu-Cys-Pro-Gln-Leu-Tyr-Cys-Arg-OH, 20-membered ring, 1.0 mM) of 18%.

`CC(C)C[C@@H]1NC(=O)[C@H](CCC(N)=O)NC(=O)[C@@H]2CCCN2C(=O)[C@@H](NC(=O)[C@@H](N)CC(C)C)CSSCCNC(=O)[C@H](CCCNC(=N)N)NC(=O)[C@H](CCC(N)=O)NC(=O)[C@H](Cc2ccc(O)cc2)NC1=O` [Leu-c[Cys-Pro-Gln-Leu-Tyr-Gln-Arg-CAM]] displayed a ring closure, yield after HPLC in series [1] (from H-Leu-Cys-Pro-Gln-Leu-Tyr-Gln-Arg-NHCH2CH2SH, 26-membered ring, 0.93 mM) of 10%.

The compound `CC(C)C[C@@H]1NC(=O)[C@H](CCC(N)=O)NC(=O)[C@@H]2CCCN2C(=O)[C@@H](NC(=O)[C@@H](N)CC(C)C)CSSC[C@@H](C(=O)O)NC(=O)[C@H](CCC(N)=O)NC(=O)[C@H](Cc2ccc(O)cc2)NC1=O` [Leu-c[Cys-Pro-Gln-Leu-Tyr-Gln-Cys-]] returned a ring closure, yield after HPLC in series [1] (from H-Leu-Cys-Pro-Gln-Leu-Tyr-Gln-Cys-OH, 23-membered ring, 1.03 mM) of 22%.

With `CC(C)C[C@@H]1NC(=O)[C@H](CCC(N)=O)NC(=O)[C@@H](NC(=O)[C@H](CO)NC(=O)[C@@H](N)CC(C)C)CSSCCNC(=O)[C@H](CCCNC(=N)N)NC(=O)[C@H](CCC(N)=O)NC(=O)[C@H](Cc2ccc(O)cc2)NC1=O` [Peptide 1, Leu-Ser-c[Cys-Gln-Leu-Tyr-Gln-Arg-CAM]] (H-LSCQLYQR-Cysteamide; disulfide 3-C), the inhibition at 400 µM in series [2] (at 400 µM and r.t. under stirring) was 25%. Also, the half-maximal inhibitory concentration (IC50) in series [3] (room temperature (20–22 °C) under stirring, standard error ±20% of the value) is 2120 µM.

As to `CC(C)C[C@@H]1NC(=O)[C@@H](CCC(N)=O)NC(=O)[C@@H](NC(=O)[C@H](CO)NC(=O)[C@@H](N)CC(C)C)CSSCCNC(=O)[C@H](CCCNC(=N)N)NC(=O)[C@H](CCC(N)=O)NC(=O)[C@H](Cc2ccc(O)cc2)NC1=O` [Peptide 3, Leu-Ser-c[Cys-D-Gln-Leu-Tyr-Gln-Arg-CAM]] (H-LSC[dQ]LYQR-Cysteamide; disulfide 3-C), the “% inhibition of hTS” value in series [2] was “inactive”.

For `CC(C)C[C@@H]1NC(=O)[C@@H](CCC(N)=O)NC(=O)[C@@H](NC(=O)[C@H](CO)NC(=O)[C@@H](N)CC(C)C)CSSC[C@@H](C(=O)O)NC(=O)[C@H](CCC(N)=O)NC(=O)[C@H](Cc2ccc(O)cc2)NC1=O` [Peptide 4, Leu-Ser-c[Cys-D-Gln-Leu-Tyr-Gln-Cys]] (H-LSC[dQ]LYQC-OH; disulfide 3-8), the “% inhibition of hTS” value in series [2] was “inactive”. For the same compound, in the series on IGROV-1 cells, the “cytotoxicity (in words)” value is “least active”.

In the case of `CC(C)C[C@@H]1NC(=O)[C@@H](CCC(N)=O)NC(=O)[C@@H](NC(=O)[C@H](CO)NC(=O)[C@@H](N)CC(C)C)CSSC[C@@H](C(=O)N[C@@H](CCCNC(=N)N)C(=O)O)NC(=O)[C@H](Cc2ccc(O)cc2)NC1=O` [Peptide 5, Leu-Ser-c[Cys-D-Gln-Leu-Tyr-Cys]-Arg] (H-LSC[dQ]LYCR-OH; disulfide 3-7; N-terminus assumed), the “% inhibition of hTS” value is “N.I. at 500 µM and r.t. N.I. at 500 µM and 37 °C under stirring” in series [2]; “N.I. at 500 µM and r.t. N.I. at 500 µM and 37 °C under stirring” in series [3] (at 500 µM and 37 °C under stirring).

`CC(C)C[C@@H]1NC(=O)[C@H](CCC(N)=O)NC(=O)[C@@H]2CCCN2C(=O)[C@H](CO)NC(=O)[C@@H](N)CSSC[C@@H](C(=O)O)NC(=O)[C@H](CCC(N)=O)NC(=O)[C@H](Cc2ccc(O)cc2)NC1=O` [c[Cys-Ser-Pro-Gln-Leu-Tyr-Gln-Cys]] showed a ring closure, yield after HPLC in series [1] (from H-Cys-Ser-Pro-Gln-Leu-Tyr-Gln-Cys-OH, 26-membered ring, 1.06 mM) of 25%.
